From PubChem BioAssay AID1963852 (Molecular Pharmacology Branch, DTP, NCI, 2024)

Tested on: 282377-053-R-J1-PDC complex spheroid viability
Test: Anticancer human tumor 282377-053-R-J1-PDC patient-derived colon adenocarcinoma cell line growth inhibition [POLQ]
Settings: for IC50: curve of first compound; for viability, T/C: stronger effect = lower value
Summary of the method: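 Complex spheroid viability model combining PDC tumour cells with endothelial (HUVEC) and MSC stromal cells. Novobiocin, ART-558 or RP6685 were tested singly and in combination with standard and investigational anticancer drugs. Each was titrated in half-log steps from near clinical Cmax, or from 10 microM where Cmax was unknown.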

[1] = second compound 0.0316 µM, first compound 0.0316 µM
[2] = second compound 0.0316 µM, first compound 0.1 µM
[3] = second compound 0.0316 µM, first compound 0.316 µM
[4] = second compound 0.0316 µM, first compound 1 µM
[5] = second compound 0.0316 µM, first compound 3.16 µM
[6] = second compound 0.0316 µM, first compound 10 µM
[7] = second compound 0.1 µM, first compound 0.0316 µM
[8] = second compound 0.1 µM, first compound 0.1 µM
[9] = second compound 0.1 µM, first compound 0.316 µM
[10] = second compound 0.1 µM, first compound 1 µM
[11] = second compound 0.1 µM, first compound 3.16 µM
[12] = second compound 0.1 µM, first compound 10 µM
[13] = second compound 0.316 µM, first compound 0.0316 µM
[14] = second compound 0.316 µM, first compound 0.1 µM
[15] = second compound 0.316 µM, first compound 0.316 µM
[16] = second compound 0.316 µM, first compound 1 µM
[17] = second compound 0.316 µM, first compound 3.16 µM
[18] = second compound 0.316 µM, first compound 10 µM
[19] = second compound 1 µM, first compound 0.0316 µM
[20] = second compound 1 µM, first compound 0.1 µM
[21] = second compound 1 µM, first compound 0.316 µM
[22] = second compound 1 µM, first compound 1 µM
[23] = second compound 1 µM, first compound 3.16 µM
[24] = second compound 1 µM, first compound 10 µM
[25] = second compound 3.16 µM, first compound 0.0316 µM
[26] = second compound 3.16 µM, first compound 0.1 µM
[27] = second compound 3.16 µM, first compound 0.316 µM
[28] = second compound 3.16 µM, first compound 1 µM
[29] = second compound 3.16 µM, first compound 3.16 µM
[30] = second compound 3.16 µM, first compound 10 µM
[31] = second compound 10 µM, first compound 0.0316 µM
[32] = second compound 10 µM, first compound 0.1 µM
[33] = second compound 10 µM, first compound 0.316 µM
[34] = second compound 10 µM, first compound 1 µM
[35] = second compound 10 µM, first compound 3.16 µM
[36] = second compound 10 µM, first compound 10 µM
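Also: spheroids exposed to compounds for seven days.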
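For viability, T/C in this document: 100% = DMSO vehicle control viability.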

SMILES: CC1COCCN1c1cc(C2(S(C)(=N)=O)CC2)nc(-c2ccnc3[nH]ccc23)n1 (stereo not drawn) + Nc1ccc(C#CCN(C(=O)Cc2ncc(C(F)(F)F)cc2C(F)(F)F)c2ccc(F)cc2)nn1
- IC50 (second compound 0.0316 µM): > 10 µM
- IC50 (second compound 0.1 µM): > 10 µM
- IC50 (second compound 0.316 µM): > 10 µM
- IC50 (second compound 1 µM): > 10 µM
- IC50 (second compound 3.16 µM): > 10 µM
- IC50 (second compound 10 µM): > 10 µM
- viability, T/C [1]: 117%
- viability, T/C [2]: 96.5%
- viability, T/C [3]: 90.7%
- viability, T/C [4]: 86.2%
- viability, T/C [5]: 73.6%
- viability, T/C [6]: 54.6%
- viability, T/C [7]: 99.2%
- viability, T/C [8]: 106%
- viability, T/C [9]: 93.1%
- viability, T/C [10]: 79.8%
- viability, T/C [11]: 78.7%
- viability, T/C [12]: 58.5%
- viability, T/C [13]: 116%
- viability, T/C [14]: 101%
- viability, T/C [15]: 93.1%
- viability, T/C [16]: 81.5%
- viability, T/C [17]: 80%
- viability, T/C [18]: 59.7%
- viability, T/C [19]: 112%
- viability, T/C [20]: 90.9%
- viability, T/C [21]: 84.7%
- viability, T/C [22]: 91.7%
- viability, T/C [23]: 75.1%
- viability, T/C [24]: 70.3%
- viability, T/C [25]: 116%
- viability, T/C [26]: 101%
- viability, T/C [27]: 91.4%
- viability, T/C [28]: 92.4%
- viability, T/C [29]: 76.1%
- viability, T/C [30]: 57.5%
- viability, T/C [31]: 96.5%
- viability, T/C [32]: 119%
- viability, T/C [33]: 106%
- viability, T/C [34]: 95%
- viability, T/C [35]: 93%
- viability, T/C [36]: 72.4%

SMILES: CCCS(=O)(=O)Nc1ccc(F)c(C(=O)c2c[nH]c3ncc(-c4ccc(Cl)cc4)cc23)c1F + Nc1ccc(C#CCN(C(=O)Cc2ncc(C(F)(F)F)cc2C(F)(F)F)c2ccc(F)cc2)nn1
- IC50 (second compound 0.0316 µM): > 10 µM
- IC50 (second compound 0.1 µM): > 10 µM
- IC50 (second compound 0.316 µM): > 10 µM
- IC50 (second compound 1 µM): > 10 µM
- IC50 (second compound 3.16 µM): > 10 µM
- IC50 (second compound 10 µM): > 10 µM
- viability, T/C [1]: 94.3%
- viability, T/C [2]: 77%
- viability, T/C [3]: 71.1%
- viability, T/C [4]: 57.9%
- viability, T/C [5]: 60.4%
- viability, T/C [6]: 61.9%
- viability, T/C [7]: 105%
- viability, T/C [8]: 80.2%
- viability, T/C [9]: 77%
- viability, T/C [10]: 60.5%
- viability, T/C [11]: 77.2%
- viability, T/C [12]: 80.7%
- viability, T/C [13]: 81.5%
- viability, T/C [14]: 81%
- viability, T/C [15]: 73%
- viability, T/C [16]: 70.9%
- viability, T/C [17]: 66.2%
- viability, T/C [18]: 74.1%
- viability, T/C [19]: 99.8%
- viability, T/C [20]: 93.9%
- viability, T/C [21]: 68.9%
- viability, T/C [22]: 62.4%
- viability, T/C [23]: 59.1%
- viability, T/C [24]: 60.1%
- viability, T/C [25]: 120%
- viability, T/C [26]: 90%
- viability, T/C [27]: 69.5%
- viability, T/C [28]: 78.8%
- viability, T/C [29]: 63.4%
- viability, T/C [30]: 70.4%
- viability, T/C [31]: 107%
- viability, T/C [32]: 97.6%
- viability, T/C [33]: 80.8%
- viability, T/C [34]: 71.9%
- viability, T/C [35]: 63.9%
- viability, T/C [36]: 65.3%

SMILES: CCc1cc2c(N3CCc4c(cc(Cn5ccnc5)cc4-c4cn(C)nc4C(F)(F)F)C3=O)cc(C)nc2c(OC)n1 + Nc1ccc(C#CCN(C(=O)Cc2ncc(C(F)(F)F)cc2C(F)(F)F)c2ccc(F)cc2)nn1
- IC50 (second compound 0.0316 µM): > 10 µM
- IC50 (second compound 0.1 µM): > 10 µM
- IC50 (second compound 0.316 µM): > 10 µM
- IC50 (second compound 1 µM): > 10 µM
- IC50 (second compound 3.16 µM): > 10 µM
- IC50 (second compound 10 µM): > 10 µM
- viability, T/C [1]: 83%
- viability, T/C [2]: 81.5%
- viability, T/C [3]: 89%
- viability, T/C [4]: 98.2%
- viability, T/C [5]: 120%
- viability, T/C [6]: 99.3%
- viability, T/C [7]: 84.8%
- viability, T/C [8]: 82.8%
- viability, T/C [9]: 82.3%
- viability, T/C [10]: 75.1%
- viability, T/C [11]: 93.4%
- viability, T/C [12]: 115%
- viability, T/C [13]: 96.6%
- viability, T/C [14]: 86.2%
- viability, T/C [15]: 89.4%
- viability, T/C [16]: 82.3%
- viability, T/C [17]: 95.9%
- viability, T/C [18]: 96.1%
- viability, T/C [19]: 82.1%
- viability, T/C [20]: 88.7%
- viability, T/C [21]: 79.8%
- viability, T/C [22]: 96%
- viability, T/C [23]: 96.7%
- viability, T/C [24]: 107%
- viability, T/C [25]: 95.6%
- viability, T/C [26]: 91.3%
- viability, T/C [27]: 85%
- viability, T/C [28]: 106%
- viability, T/C [29]: 90.5%
- viability, T/C [30]: 108%
- viability, T/C [31]: 108%
- viability, T/C [32]: 102%
- viability, T/C [33]: 125%
- viability, T/C [34]: 107%
- viability, T/C [35]: 113%
- viability, T/C [36]: 115%

SMILES: COc1ccc([C@@H](O)c2cc(-c3ncnc4cc(N5CCOCC5)ccc34)c(F)cc2Cl)nn1 + Nc1ccc(C#CCN(C(=O)Cc2ncc(C(F)(F)F)cc2C(F)(F)F)c2ccc(F)cc2)nn1
- IC50 (second compound 0.0316 µM): > 10 µM
- IC50 (second compound 0.1 µM): > 10 µM
- IC50 (second compound 0.316 µM): > 10 µM
- IC50 (second compound 1 µM): > 10 µM
- IC50 (second compound 3.16 µM): > 10 µM
- IC50 (second compound 10 µM): > 10 µM
- viability, T/C [1]: 101%
- viability, T/C [2]: 98.1%
- viability, T/C [3]: 102%
- viability, T/C [4]: 93.8%
- viability, T/C [5]: 88.3%
- viability, T/C [6]: 71.8%
- viability, T/C [7]: 94.4%
- viability, T/C [8]: 108%
- viability, T/C [9]: 97.3%
- viability, T/C [10]: 100%
- viability, T/C [11]: 85.5%
- viability, T/C [12]: 83.2%
- viability, T/C [13]: 102%
- viability, T/C [14]: 86.2%
- viability, T/C [15]: 111%
- viability, T/C [16]: 89%
- viability, T/C [17]: 106%
- viability, T/C [18]: 86.9%
- viability, T/C [19]: 106%
- viability, T/C [20]: 88.5%
- viability, T/C [21]: 95.5%
- viability, T/C [22]: 91.9%
- viability, T/C [23]: 88.6%
- viability, T/C [24]: 84.1%
- viability, T/C [25]: 109%
- viability, T/C [26]: 105%
- viability, T/C [27]: 92.5%
- viability, T/C [28]: 100%
- viability, T/C [29]: 91%
- viability, T/C [30]: 85.4%
- viability, T/C [31]: 122%
- viability, T/C [32]: 111%
- viability, T/C [33]: 98.7%
- viability, T/C [34]: 109%
- viability, T/C [35]: 100%
- viability, T/C [36]: 90.1%
